According to patent US20070037782A1, “Therapeutic agent for ageing macular degeneration” (MEIJI DAIRIES CORPORATION, priority 2003, published 2007):

Tested on: rat model of laser-induced choroidal neovascularization
Experiment: Inhibitory effect on choroidal neovascularization (CNV) after subconjunctival administration, rat model of laser-induced CNV
Format: in vivo, Rats (Brown Norway)
Conditions: for incidence of CNV relative to that of the base group: single subconjunctival administration, 14 days after photocoagulation, mean±S.E., P<0.01 vs base group
Protocol: An inhibitory effect on choroidal neovascularization caused by the subconjunctival administration of FMPA was assessed using a rat model of laser-induced choroidal neovascularization (which may hereinafter be abbreviated as CNV).
Rats (Brown Norway, 8 week old, male) were given general anesthesia and their pupils were dilated with one drop of commercially available eye-drops (“Mydrin P”, trade name; product of Santen Pharmaceutical Co. Ltd.) They were then subjected to photocoagulation by a krypton laser photocoagulation apparatus (“MC-7000L”, manufactured by NIDEK Co., Ltd.). The photocoagulation was performed sporadically at 8 sites while focusing on the deep layer of the retina and avoiding laser irradiation to thick retinal blood vessels (coagulation conditions: spot size of 100μm, output of 100 mW and coagulation time for 0.1 second). This photocoagulation was given to both eyes. After photocoagulation, the sites exposed to laser were confirmed by fundus photography. These rats were bred for 14 days, whereby CNV rat models were produced. […]
Fourteen days after photocoagulation, 0.1 mL of 10 wt.% fluorescein was injected through the caudal vein and based on the photograph taken by a fluorescein fundus camera (“Pro III”, product of Kowa Company Ltd), presence or absence of CNV was observed. […] A ratio of the number of positive sites to the number of all the exposed sites (8 sites) of eyeballs was calculated and the incidence of CNV of each administration group was calculated when the CNV incidence of the base group (Group 1) was assumed to be 1.00. […]
The incidence of CNV was expressed as a mean value±S.E. Comparison between the base group (Group 1) and each FMPA group (Groups 2 and 3) was made using analysis of variance, followed by Dunnett multiple comparison tests, while comparison between the base group and Comparative medicament group (Group 4) or comparison between the FMPA group (Group 2) and Comparative medicament group was made using t-test. […]

Which “incidence of CNV relative to that of the base group” value (1000 μg/eye) does the source give for `CC(=O)O[C@]1(C(C)=O)CC[C@H]2[C@@H]3C[C@H](C)C4=CC(=O)CC[C@]4(C)[C@@]3(F)CC[C@@]21C` [FMPA, 9α-fluoromedroxyprogesterone acetate] here?
The value was 62.2±6.7%.

And the “incidence of CNV relative to that of the base group” value (3000 μg/eye)?
The value was 48.9±6.5%.

And the “CNV inhibitory effect (in words)” value (1000 and 3000 μg/eye, subconjunctival, rat)?
Its value is “dose-dependent CNV inhibitory effect”.
